Results taken from article PMC3221803 (Journal of neuroscience methods, 2011).
“And” between values parts separate entries of the source, which are not always exact repeats. Identical values can stand only once. Like-named read-outs stand apart in the source and are kept apart here.

Tests used:
[1] = target: T1, hNET (Homo sapiens, UniProt P23975); assay: biochemical; format: binding
[2] = target: T1, hNET; settings: read-out: IC50 for inhibition of [^3H]NE uptake; ref Eshleman et al., 1999; cited from earlier work
[3] = target: T1, hNET; settings: intact cells, 25°C

T1 sequence (P23975 whole entry): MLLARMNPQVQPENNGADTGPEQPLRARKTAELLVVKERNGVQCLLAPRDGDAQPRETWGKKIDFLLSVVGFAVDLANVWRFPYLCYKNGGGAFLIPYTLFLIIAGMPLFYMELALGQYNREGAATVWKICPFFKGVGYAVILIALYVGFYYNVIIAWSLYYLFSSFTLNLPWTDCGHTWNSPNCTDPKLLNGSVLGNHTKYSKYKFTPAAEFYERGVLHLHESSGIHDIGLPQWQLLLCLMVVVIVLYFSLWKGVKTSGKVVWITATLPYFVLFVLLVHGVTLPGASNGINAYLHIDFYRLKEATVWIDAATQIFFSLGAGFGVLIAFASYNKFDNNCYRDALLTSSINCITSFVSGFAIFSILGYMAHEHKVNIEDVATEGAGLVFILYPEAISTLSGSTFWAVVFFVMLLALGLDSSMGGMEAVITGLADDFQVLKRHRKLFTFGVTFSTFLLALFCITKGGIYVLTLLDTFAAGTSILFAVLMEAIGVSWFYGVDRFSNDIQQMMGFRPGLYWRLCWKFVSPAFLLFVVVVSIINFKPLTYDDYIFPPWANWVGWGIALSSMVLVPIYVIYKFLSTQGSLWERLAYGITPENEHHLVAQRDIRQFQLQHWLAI

SMILES	Potency in inhibiting [^3H]CFT binding relative to [^3H]NE uptake (Ki ratio) [1]	IC50 [2]	Time to maximal [^3H]CFT binding [1]	Kd ([1]; Kd of CFT)	Kd ([1]; Kd of [^3H]CFT binding)	Time to maximal [^3H]CFT binding [3]
CN1[C@@H]2CC[C@H]1C[C@@H](OC(c1ccccc1)c1ccccc1)C2 [benztropine]	equipotent	–	–	–	–	–
OC1(c2ccc(Cl)cc2)c2ccccc2C2=NCCN21 (stereo not shown) [mazindol]	weaker	–	–	–	–	–
COC(=O)[C@H]1[C@@H](c2ccc(F)cc2)C[C@@H]2CC[C@H]1N2C [CFT, 2β-carbomethoxy-3β-(4-fluorophenyl)-tropane]	–	33.3 nM	15 min	18 ± 5 nM	35.7 nM and 22.1 nM and 34.5 nM	15 min
